Here are results for 12 compounds from paper PMC12257540, “From Inhibitors to PET: SAR-Based Development of [^18F]SK60 for mIDH1 Imaging” (Journal of Medicinal Chemistry, 2025).

Where “and” joins values, the source holds several entries; their conditions need not be identical. Identical values can stand only once.

One experiment concerns the target T1, IDH1R132H (Homo sapiens, UniProt O75874, R132H).
T1 construct: purchased BPS Bioscience BPS-79376
Put plainly: Mutant IDH1 enzyme assay for determination of inhibitory potency (diaphorase/resazurin). It counts as biochemical. Particulars: recombinant IDH1R132H, 30 min preincubation, 60 min reaction. The method, then: Determination of the activity and inhibition of mutant IDH1 recombinant protein, IDH1R132H, is based on the reduction of α-KG acid to D-2-HG accompanied by a concomitant oxidation of NADPH to NADP. The amount of NADPH remaining at the end of the reaction time is measured in a secondary diaphorase/resazurin reaction, in which the NADPH is consumed in a 1/1 molar ratio with the conversion of resazurin to the highly fluorescent resorufin. For the determination of the inhibitory potential of ligands, the IDH1R132H Assay Kit (BPS-79376, BPS Bioscience, San Diego, CA) was used. […] For inhibition assays, triplicate samples of the ligands in the concentration range from 10^–5 M to 10^–10 M were incubated with the enzyme for 30 min before the addition of α-KG and NADPH to initiate the reaction. The reaction ran for 60 min at room temperature and was terminated with the addition of 25 μL of detection buffer (36 μg/mL diaphorase and […] resazurin) to 50 μL of the reaction solution. The conversion of resazurin to resorufin by diaphorase was measured fluorometrically at Ex544/Em590 (Synergy H1 microplate reader, BioTek, Winooski, VT). The data were imported into GraphPad Prism 4.1 (GraphPad Inc.; La Jolla; CA), and the IC50 values were calculated with a standard dose–response curve fitting (Figure S2, SI).
(The colour change of resazurin is a common sign of viable cells or microbes.)

A further experiment has as its target T2, wtIDH1 (Homo sapiens, UniProt O75874).
T2 construct: purchased abcam ab113858
Nature of the experiment: IDH1 enzyme assay for determination of inhibitory potency (diaphorase/resazurin). It is filed as biochemical. To be noted: 1 h preincubation, 1 h reaction. As for the experimental part: IDH1 enzyme assay is a modified version of the assay used for mIDH1. With the conversion of isocitrate to α-KG, this enzyme stoichiometrically converts NADP to NADPH. It produces NADPH, which directly couples to the diaphorase/resazurin system, and the resorufin production can be measured. The protocols for the determination of inhibition of IDH1 were performed as described by Wang et al. (2013). The IDH1 (ab113858) was purchased from abcam (Cambridge, UK).
Briefly, IDH1 assays were conducted in 50 μL buffer (20 mM TRIS buffer (pH = 7.5), 150 mM NaCl, 10 mM MgCl2, 0.05% BSA and 4 mM β-mercaptoethanol) containing 50 μM NADP, 70 μM DL-isocitrate, and 0.04 μg/mL IDH1 enzyme (reaction time 1 h at room temperature). For inhibition assays, triplicate samples of the ligands in the concentration range from 10^–4 M to 10^–10 M were incubated with the IDH1 for 1 h before the addition of DL-isocitrate and NADP to initiate the reaction together with the direct detection system comprised of 20 μg/mL diaphorase and 4 μM resazurin. The reaction was terminated with the addition of 25 μL of 2% SDS and read on a Synergy H1 microplate reader at Ex544/Em590. The data were imported into GraphPad Prism, and the IC50 values were calculated with a standard dose–response curve fitting (Figure S2, SI).

T2 sequence (O75874 whole entry): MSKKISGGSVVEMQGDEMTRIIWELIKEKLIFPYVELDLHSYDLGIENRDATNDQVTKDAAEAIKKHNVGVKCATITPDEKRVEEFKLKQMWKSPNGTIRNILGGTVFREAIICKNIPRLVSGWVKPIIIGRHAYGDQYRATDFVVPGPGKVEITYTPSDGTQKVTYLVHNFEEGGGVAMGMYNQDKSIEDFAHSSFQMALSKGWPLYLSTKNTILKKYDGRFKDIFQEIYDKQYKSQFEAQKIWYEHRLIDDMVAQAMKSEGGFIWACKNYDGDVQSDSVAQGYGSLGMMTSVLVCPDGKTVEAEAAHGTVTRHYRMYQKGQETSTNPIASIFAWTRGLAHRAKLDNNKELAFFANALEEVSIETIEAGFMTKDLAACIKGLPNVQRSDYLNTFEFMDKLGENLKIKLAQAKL
T1 sequence (O75874 whole entry R132H): as the sequence (O75874 whole entry) above, with R132H counted along it

A word on the IC50: it is the point on the concentration scale where inhibition reaches its midpoint. For the compound `Cc1cccc(NC(=O)c2nn(Cc3ccc(F)cc3)c3c2CN(C(=O)C(C)(C)CF)CC3(C)C)c1` [Compound 60, 5-(3-fluoro-2,2-dimethylpropanoyl)-1-(4-fluorobenzyl)-7,7-dimethyl-N-(m-tolyl)-4,5,6,7-tetrahydro-1H-pyrazolo[4,3-c]pyridine-3-carboxamide], the IC50 on IDH1R132H is 1.3 µM.
In the case of `CC1(C)CN(C(=O)c2ccc[nH]2)Cc2c(C(=O)Nc3ccccc3)nn(Cc3ccc(F)cc3)c21` [Compound 23, 1-(4-fluorobenzyl)-7,7-dimethyl-N-phenyl-5-(1H-pyrrole-2-carbonyl)-4,5,6,7-tetrahydro-1H-pyrazolo[4,3-c]pyridine-3-carboxamide], the IC50 on IDH1R132H is 0.0247 µM and 0.064 µM; on wtIDH1, more than 10 µM.
As for `CC1(C)CN(C(=O)c2ccc[nH]2)Cc2c(C(=O)Nc3ccccc3F)nn(Cc3ccc(F)cc3)c21` [Compound 27, 1-(4-fluorobenzyl)-N-(2-fluorophenyl)-7,7-dimethyl-5-(1H-pyrrole-2-carbonyl)-4,5,6,7-tetrahydro-1H-pyrazolo[4,3-c]pyridine-3-carboxamide], the IC50 at IDH1R132H came to 0.196 µM.
As to `CC1(C)CN(C(=O)c2ccc[nH]2)Cc2c(C(=O)NC3CCCC3)nn(Cc3ccc(F)cc3)c21` [Compound 36], the IC50 at IDH1R132H was 5.9 µM; at wtIDH1, more than 10 µM.
For `CC1(C)CN(C(=O)c2ccc[nH]2)Cc2c(C(N)=O)nn(Cc3ccc(F)cc3)c21` [Compound 42], in that order: 5.02 µM and more than 10 µM.
As to `CC1(C)CN(C(=O)c2ccc[nH]2)Cc2c(C(=O)N3CCCCC3)nn(Cc3ccc(F)cc3)c21` [Compound 35], the IC50 on IDH1R132H is more than 1 µM; on wtIDH1 it was more than 10 µM.
For `CC1(C)CN(C(=O)c2ccc[nH]2)Cc2c(C(=O)NC34CC5CC(CC(C5)C3)C4)nn(Cc3ccc(F)cc3)c21` [Compound 33], in that order: 0.163 ± 0.0396 µM and more than 10 µM.
For `Cc1cccc(NC(=O)c2nn(CCCCF)c3c2CN(C(=O)c2ccc[nH]2)CC3(C)C)c1` [Compound 47, 1-(4-fluorobutyl)-7,7-dimethyl-5-(1H-pyrrole-2-carbonyl)-N-(m-tolyl)-4,5,6,7-tetrahydro-1H-pyrazolo[4,3-c]pyridine-3-carboxamide], in that order: 0.571 µM and more than 10 µM.
On to `CC1(C)CN(C(=O)c2ccc[nH]2)Cc2c(C(=O)Nc3cccnc3)nn(Cc3ccc(F)cc3)c21` [Compound 30, 1-(4-fluorobenzyl)-7,7-dimethyl-N-(pyridin-3-yl)-5-(1H-pyrrole-2-carbonyl)-4,5,6,7-tetrahydro-1H-pyrazolo[4,3-c]pyridine-3-carboxamide], for which the IC50 at IDH1R132H was 0.631 µM and 0.648 µM; at wtIDH1 it was more than 10 µM.
As to `CC1(C)CN(C(=O)c2ccc[nH]2)Cc2c(C(=O)N3CCOCC3)nn(Cc3ccc(F)cc3)c21` [Compound 37], the IC50 at IDH1R132H and on wtIDH1 was more than 10 µM in each case.
`CN(C)C(=O)c1nn(Cc2ccc(F)cc2)c2c1CN(C(=O)c1ccc[nH]1)CC2(C)C` [Compound 41]: the IC50 on IDH1R132H and on wtIDH1 was more than 10 µM each time.
`CCCOCCNC(=O)c1nn(Cc2ccc(F)cc2)c2c1CN(C(=O)c1ccc[nH]1)CC2(C)C` [Compound 39]: the IC50 at IDH1R132H is more than 5 µM; at wtIDH1, more than 10 µM.
